US20220002279A1, “NOVEL IMIDAZOLE DERIVATIVE” (priority 2018, published 2022)
Values after ≈ are worked out from the molar mass of the structure shown.

Experiments:
[1] = biological target: T1, Escherichia coli LpxC enzyme (Escherichia coli, UniProt P0A725); test: Inhibitory activity on Escherichia coli LpxC enzyme (fluorescamine method); type: biochemical; conditions: fluorescamine detection; 3.1 nmol/L enzyme, 20 μmol/L substrate, pH 6.5, 120 min; read-out: IC50 (inhibitory activity on Escherichia coli LpxC enzyme, Fluoresamine method)
T1 construct: made in house; host or cells: Escherichia coli
T1 sequence (P0A725 1-305): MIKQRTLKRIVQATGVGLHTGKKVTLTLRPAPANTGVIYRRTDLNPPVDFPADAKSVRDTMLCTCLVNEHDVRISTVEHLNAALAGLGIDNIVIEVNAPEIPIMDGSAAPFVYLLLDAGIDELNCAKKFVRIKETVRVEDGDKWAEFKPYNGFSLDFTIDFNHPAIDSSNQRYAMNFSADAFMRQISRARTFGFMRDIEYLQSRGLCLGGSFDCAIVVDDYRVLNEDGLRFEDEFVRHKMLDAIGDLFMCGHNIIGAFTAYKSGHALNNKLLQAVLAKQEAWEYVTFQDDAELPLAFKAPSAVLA
Method in brief: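 LpxC reacted with UDP-3-O-(R-3-hydroxymyristoyl)-N-acetylglucosamine; product amine quantified after fluorescamine stop and pH 8.0 phosphate buffer addition, at 390 nm/495 nm. Inhibition curve built from a range of test compound concentrations.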

[2] = system: Pseudomonas aeruginosa strain ATCC27853; test: Antimicrobial activity, MIC by broth microdilution; type: cell-based; conditions: ATCC27853, 18 h, cation-adjusted Mueller-Hinton broth, about 5×10^5 CFU/mL, 35° C., about 18 hours, read-out: MIC Pseudomonas aeruginosa ATCC27853
Method in brief: (§1)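 MIC read by eye as the lowest drug level lacking visible growth after roughly 18 h at 35° C. Cells from heart infusion agar, set to McFarland 0.5 and diluted, were inoculated at about 5×10^5 CFU/mL into cation-adjusted Mueller-Hinton broth with compound, per adapted CLSI microdilution.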

[3] = system: Klebsiella pneumoniae strain ATCC13883; test: Antimicrobial activity, MIC by broth microdilution; type: cell-based; conditions: ATCC13883, cation-adjusted Mueller-Hinton broth, about 5×10^5 CFU/mL, 35° C., about 18 hours, read-out: MIC Klebsiella pneumoniae ATCC13883
Method in brief: as §1

[4] = system: Escherichia coli strain ATCC25922; test: Antimicrobial activity, MIC by broth microdilution; type: cell-based; conditions: ATCC25922, 18 h, cation-adjusted Mueller-Hinton broth, about 5×10^5 CFU/mL, 35° C., about 18 hours, read-out: MIC Escherichia coli ATCC25922
Method in brief: as §1

SMILES | IC50 [1] | MIC [2] | MIC [3] | MIC [4]
C[C@H](O)c1nccn1Cc1cc(-c2ccc(C#C[C@@H]3[C@H]4CNC[C@@H]34)cc2)no1 [Compound 83, (1S)-1-(1-{[3-(4-{[(1R,5S,6s)-3-azabicyclo[3.1.0]hexan-6-yl]ethynyl}phenyl)-1,2-oxazol-5-yl]methyl}-1H-imidazol-2-yl)ethan-1-ol] | 136 nM | 8 µg/mL (≈ 21.4 µM) | 8 µg/mL (≈ 21.4 µM) | 8 µg/mL (≈ 21.4 µM)
COCCN1C[C@@H]2[C@@H](C#Cc3ccc(-c4cc(Cn5ccnc5[C@H](C)O)on4)cc3)[C@@H]2C1 [Compound 84, (1S)-1-(1-{[3-(4-{[(1R,5S,6s)-3-(2-methoxyethyl)-3-azabicyclo[3.1.0]hexan-6-yl]ethynyl}phenyl)-1,2-oxazol-5-yl]methyl}-1H-imidazol-2-yl)ethan-1-ol] | 102 nM | 16 µg/mL (≈ 37 µM) | 0.5 µg/mL (≈ 1.16 µM) | 0.5 µg/mL (≈ 1.16 µM)
COCC(O)CN1C[C@@H]2[C@@H](C#Cc3ccc(-c4cc(Cn5ccnc5[C@H](C)O)on4)cc3)[C@@H]2C1 (stereo partly drawn) [Compound 85, 1-[(1R,5S,6s)-6-({4-[5-({2-[(1S)-1-hydroxyethyl]-1H-imidazol-1-yl}methyl)-1,2-oxazol-3-yl]phenyl}ethynyl)-3-azabicyclo[3.1.0]hexan-3-yl]-3-methoxypropan-2-ol] | 96.8 nM | 8 µg/mL (≈ 17.3 µM) | 0.5 µg/mL (≈ 1.08 µM) | 0.5 µg/mL (≈ 1.08 µM)
CC(=O)N1C[C@@H]2[C@@H](C#Cc3ccc(-c4cc(Cn5ccnc5[C@H](C)O)on4)cc3)[C@@H]2C1 [Compound 86, 1-[(1R,5S,6s)-6-({4-[5-((2-[(1S)-1-hydroxyethyl]-1H-imidazol-1-yl}methyl)-1,2-oxazol-3-yl]phenyl}ethynyl)-3-azabicyclo[3.1.0]hexan-3-yl]ethan-1-one] | 46.4 nM | 32 µg/mL (≈ 76.8 µM) | 1 µg/mL (≈ 2.4 µM) | 1 µg/mL (≈ 2.4 µM)
CC(=O)N[C@H]1C[C@H](C#Cc2ccc(-c3cc(Cn4ccnc4[C@H](C)O)no3)cc2)C1 [Compound 87, N-[trans-3-({4-[3-({2-[(1S)-1-hydroxyethyl]-1H-imidazol-1-yl}methyl)-1,2-oxazol-5-yl]phenyl}ethynyl)cyclobutyl]acetamide] | 25.2 nM | > 128 µg/mL | 1 µg/mL (≈ 2.47 µM) | 0.5 µg/mL (≈ 1.24 µM)
CNC(=O)N1C[C@@H]2[C@@H](C#Cc3ccc(-c4cc(Cn5ccnc5[C@H](C)O)no4)cc3)[C@@H]2C1 [Compound 92, (1R,5S,6s)-6-({4-[3-({2-[(1S)-1-Hydroxyethyl]-1H-imidazol-1-yl}methyl)-1,2-oxazol-5-yl]phenyl}ethynyl)-N-methyl-3-azabicyclo[3.1.0]hexan-3-carboxamide] | 54.9 nM | 16 µg/mL (≈ 37.1 µM) | 1 µg/mL (≈ 2.32 µM) | 0.5 µg/mL (≈ 1.16 µM)
C[C@H](O)c1nccn1Cc1cc(-c2ccc(C#C[C@@H]3[C@H]4CN(CCCCC(=O)O)C[C@@H]34)cc2)on1 [Compound 93, 5-[(1R,5S,6s)-6-({4-[3-((2-[(1S)-1-hydroxyethyl]-1H-imidazol-1-yl}methyl)-1,2-oxazol-5-yl]phenyl}ethynyl)-3-azabicyclo[3.1.0]hexan-3-yl]pentanoic acid] | 371 nM | 8 µg/mL (≈ 16.9 µM) | 4 µg/mL (≈ 8.43 µM) | 4 µg/mL (≈ 8.43 µM)
C[C@H](O)c1nccn1Cc1cc(-c2ccc(C#C[C@@H]3[C@H]4CN(CCCCCC(=O)O)C[C@@H]34)cc2)on1 [Compound 94, 6-[(1R,5S,6s)-6-({4-[3-({2-[(1S)-1-hydroxyethyl]-1H-imidazol-1-yl}methyl)-1,2-oxazol-5-yl]phenyl}ethynyl)-3-azabicyclo[3.1.0]hexan-3-yl]hexanoic acid] | 412 nM | 16 µg/mL (≈ 32.7 µM) | 4 µg/mL (≈ 8.19 µM) | 2 µg/mL (≈ 4.09 µM)
C[C@H](O)c1nccn1Cc1cc(-c2ccc(C#C[C@@H]3[C@H]4CN(C(=O)CCC(=O)O)C[C@@H]34)cc2)on1 [Compound 95, 4-[(1R,5S,6s)-6-({4-[3-({2-[(1S)-1-hydroxyethyl]-1H-imidazol-1-yl}methyl)-1,2-oxazol-5-yl]phenyl}ethynyl)-3-azabicyclo[3.1.0]hexan-3-yl]-4-oxobutanoic acid] | 134 nM | 16 µg/mL (≈ 33.7 µM) | 4 µg/mL (≈ 8.43 µM) | 2 µg/mL (≈ 4.21 µM)
